This passage reports melting point results from US20110268653A1, “Compositions and Methods Related to Acid Stable Lipid Nanospheres” (The Board of Regents of the University of Texas System, priority 2010, published 2011).

By melting point is commonly meant the temperature, or range, at which the solid turns liquid.

SMILES strings stand for the structures.

The molecule `CCCCCCCCCCCCCCCCCC(=O)N1C(CCCCCCCCCCCCCCCCC)NC(=O)CC1C(=O)O` (stereo not shown) [ALA17, 17, 2-Heptadecyl-6-oxo-3-stearoylhexahydropyrimidine-4-carboxylic acid] showed a melting point of 107 to 111 °C. For `CCCCCC(=O)N1C(CCCCC)NC(=O)CC1C(=O)O` (stereo not shown) [Lipid 1a, 3-Hexanoyl-6-oxo-2-pentylhexahydropyrimidine-4-carboxylic acid] the value was 55 to 56 °C; for `CCCCCCCCCCCC(=O)N1C(CCCCC)NC(=O)CC1C(=O)O` (stereo not shown) [Lipid 1b, 3-Dodecanoyl-6-oxo-2-pentylhexahydropyrimidine-4-carboxylic acid], 118 to 120 °C.

`CCCCCCCCCCCC1NC(=O)CC(C(=O)O)N1C(=O)CCCCC` (stereo not shown) [Lipid 1c, 3-Hexanoyl-6-oxo-2-undecylhexahydropyrimidine-4-carboxylic acid] returned a melting point of 106 to 107 °C.

`CCCCCCCCCCCC(=O)N1C(CCCCCCCCCCC)NC(=O)CC1C(=O)O` (stereo not shown) [Lipid 1d, 3-Dodecanoyl-6-oxo-2-undecylhexahydropyrimidine-4-carboxylic acid] showed a melting point of 110 to 112 °C.

Consider `CCCCCCCCCCCCCCCCCC(=O)N1C(CCCCCCCCCCC)NC(=O)CC1C(=O)O` (stereo not shown) [Lipid 1e, 6-Oxo-3-stearoyl-2-undecylhexahydropyrimidine-4-carboxylic acid], for which the melting point was in the range of 105 to 109 °C. For the molecule `CCCCCCCCCCCCCCCCCC1NC(=O)CC(C(=O)O)N1C(=O)CCCCCCCCCCC` (stereo not shown) [Lipid 1f, 3-Dodecanoyl-2-heptadecyl-6-oxohexahydropyrimidine-4-carboxylic acid], the melting point was 104 to 107 °C.
